According to US6524566B2, “Synthetic soil-extract materials and medicaments for herpes viruses based thereon” (Laub Biochemicals Corp., priority 1997, dated 2003):
In brackets after ≈: the same amount, converted by molar mass.

Legend:
[1] = system: HSV-2 (HFF Cells); assay: HSV-2 cytoprotection assay in HFF cells (crystal violet); format: cell-based, herpes simplex virus type 2; conditions: Human alphaherpesvirus 2, 72 h, 3 days
[2] = system: EBV (Daudi Cells); assay: EBV VCA ELISA in superinfected Daudi cells; format: cell-based, Epstein-Barr virus; conditions: human gammaherpesvirus 4, 96 h, 4 days
Description: The EBV prototype virus used in the assay of this work was P3HR-1, which is derived from supernatant fluids of the P3HR-1 cell line. This cell line produces nontransforming virus that induces the production of early antigen (EA) and viral capsid antigen (VCA) after primary infection or superinfection of B cell lines. Daudi was the test-cell line, which is a low-level producer that contains 152 EBV genome copies per cell. These cells respond to superinfection by EBV by expressing EA and VCA. The cell line was maintained in RPMI-1640 medium supplemented by 10% FBS, L-glutamine and 100 micrograms per milliliter gentamicin. The cultures were fed twice weekly and the cell concentration adjusted to 3×10^5 cells per milliliter. The cells were kept at 37° C. in a humidified atmosphere with 5% CO2.
Daudi cells were infected and treated with humates as described above for HSV, HCMV, and VZV. The cultures were incubated for 4 days at 37° C. The cells were counted, washed and brought to the desired final concentration. For each dilution of humate, cells were added to triplicate wells of a 96-well plate and air-dried. The cells were then fixed for 20 minutes in an acetic acid/ethanol solution. […] The reaction was stopped by adding 3 Normal sulfuric acid, following which the plates were read on a microplate reader at 492 nanometers.

[3] = system: HSV-1 (HFF Cells); assay: HSV-1 cytoprotection assay in HFF cells (crystal violet); format: cell-based, herpes simplex virus type 1; conditions: Human alphaherpesvirus 1, 72 h, 3 days
[4] = system: HCMV (HFF Cells); assay: HCMV cytoprotection assay in HFF cells (crystal violet); format: cell-based, human cytomegalovirus; conditions: Human betaherpesvirus 5, 336 h, 14 days

SMILES	IC50 [1]	IC90 [1]	IC50 [2]	IC50 [3]	IC90 [3]	IC50 [4]	IC90 [4]
Nc1nc2c(ncn2COCCO)c(=O)[nH]1 [Acyclovir]	1.1 to 1.3 µg/mL (≈ 4.88 to 5.77 µM)	9.5 µg/mL (≈ 42.2 µM)	1.8 to 2.4 µg/mL (≈ 7.99 to 10.7 µM)	1.2 to 1.6 µg/mL (≈ 5.33 to 7.1 µM)	7.9 µg/mL (≈ 35.1 µM)	–	–
Nc1nc(O)c2ncn(COC(CO)CO)c2n1 [Ganciclovir]	–	–	–	–	–	0.3 to 0.76 µg/mL (≈ 1.18 to 2.98 µM)	0.6 to 1.3 µg/mL (≈ 2.35 to 5.09 µM)
